Structures can show the parent of a compound that is named as a salt.
Tests used:
IL-6 mRNA = experiment: IL-6 gene expression in peritoneal macrophages after oral administration (real-time PCR); assay type: in vivo, BALB/c mice; settings: oral 2.5 mg/kg BW/d for 7 days, vs control, P < 0.05, n = 6
[1] = Peripheral hemogram analysis in cyclophosphamide-treated mice; assay type: in vivo, BALB/c mice; settings: gavage 10.0 mg/kg for 7 days, compared with the NC treatment (so in the source), n = 6
IL-1β mRNA = experiment: IL-1β gene expression in peritoneal macrophages after oral administration (real-time PCR); assay type: in vivo, BALB/c mice; settings: oral 2.5 mg/kg BW/d for 7 days, vs control, P < 0.05, n = 6
TNF-α mRNA = experiment: TNF-α gene expression in peritoneal macrophages after oral administration (real-time PCR); assay type: in vivo, BALB/c mice; settings: oral 2.5 mg/kg BW/d for 7 days, vs control, P < 0.05, n = 6
[2] = In vivo fluorescence imaging (biodistribution after oral dose); parameters: species or system BALB/c mice
Experimental: To observe the biodistribution of sublancin in vivo, sublancin was labeled with the near-infrared dye Cy7 monoreactive NHS ester (Invitrogen, CA, USA). Female BALB/c mice of 6–8 weeks old were given an oral dose of 100 μL Cy7-stained sublancin or free Cy7. At the indicated time points (0 h, 30 min, 2 h, 6 h, 12 h, 24 h, and 48 h), mice were anesthetized with 2.5% isoflurane and then placed in the in vivo Imaging System (FXPro Kodak). The excitation and emission bandpass filter was 730 nm and 790 nm, respectively. Fluorescence signals were collected by Carestream Molecular Imaging Software. At 12 h, mice were euthanized and the ex vivo optical images of the intestine, heart, liver, spleen, lung, and kidney were recorded using the same system.

Compound	Gene expression level of IL-6 in peritoneal macrophages (IL-6 mRNA)	HGB [1]	Number of RBC [1]	Number of WBC [1]	Number of platelets [1]	Gene expression level of IL-1β in peritoneal macrophages (IL-1β mRNA)	Gene expression level of TNF-α in peritoneal macrophages (TNF-α mRNA)	Fluorescence in the excised intestine (ex vivo images) ([2]; 12 h after gavage)	Fluorescent signal in the heart, liver, spleen, lung, and kidney (ex vivo images) ([2]; 12 h after gavage)	Presence in the intestine (in vivo fluorescence) ([2]; oral dose of 100 μL, twelve hours after administration)	Fluorescent signal in vivo ([2]; oral dose of 100 μL, within 6 h)
c1ccc([C@H]2CN3CCSC3=N2)cc1 [levamisole hydrochloride]	higher than that in the control group	higher	higher	higher	higher	higher than that in the control group	higher than that in the control group	–	–	–	–
CCN1C(=CC=CC=CC=CC2=[N+](CCCCCC(=O)O)c3ccc(S(=O)(=O)O)cc3C2(C)C)C(C)(C)c2cc(S(=O)(=O)[O-])ccc21 [free Cy7]	–	–	–	–	–	–	–	only very little	Almost no fluorescent signal	most of the free Cy7 had disappeared	weak fluorescent signals
